# Square brackets hold non-standard residues; d marks the D form. Peptide text beside a SMILES is read from it. dArg(NO2) = N=C(NCCC[C@@H](N)C(=O)O)N[N+](=O)[O-]
# Key:
# Nitric oxide synthase 3 = target: T1, Nitric oxide synthase 3 (Bos taurus, UniProt P29473)
# T1 sequence (P29473 whole entry): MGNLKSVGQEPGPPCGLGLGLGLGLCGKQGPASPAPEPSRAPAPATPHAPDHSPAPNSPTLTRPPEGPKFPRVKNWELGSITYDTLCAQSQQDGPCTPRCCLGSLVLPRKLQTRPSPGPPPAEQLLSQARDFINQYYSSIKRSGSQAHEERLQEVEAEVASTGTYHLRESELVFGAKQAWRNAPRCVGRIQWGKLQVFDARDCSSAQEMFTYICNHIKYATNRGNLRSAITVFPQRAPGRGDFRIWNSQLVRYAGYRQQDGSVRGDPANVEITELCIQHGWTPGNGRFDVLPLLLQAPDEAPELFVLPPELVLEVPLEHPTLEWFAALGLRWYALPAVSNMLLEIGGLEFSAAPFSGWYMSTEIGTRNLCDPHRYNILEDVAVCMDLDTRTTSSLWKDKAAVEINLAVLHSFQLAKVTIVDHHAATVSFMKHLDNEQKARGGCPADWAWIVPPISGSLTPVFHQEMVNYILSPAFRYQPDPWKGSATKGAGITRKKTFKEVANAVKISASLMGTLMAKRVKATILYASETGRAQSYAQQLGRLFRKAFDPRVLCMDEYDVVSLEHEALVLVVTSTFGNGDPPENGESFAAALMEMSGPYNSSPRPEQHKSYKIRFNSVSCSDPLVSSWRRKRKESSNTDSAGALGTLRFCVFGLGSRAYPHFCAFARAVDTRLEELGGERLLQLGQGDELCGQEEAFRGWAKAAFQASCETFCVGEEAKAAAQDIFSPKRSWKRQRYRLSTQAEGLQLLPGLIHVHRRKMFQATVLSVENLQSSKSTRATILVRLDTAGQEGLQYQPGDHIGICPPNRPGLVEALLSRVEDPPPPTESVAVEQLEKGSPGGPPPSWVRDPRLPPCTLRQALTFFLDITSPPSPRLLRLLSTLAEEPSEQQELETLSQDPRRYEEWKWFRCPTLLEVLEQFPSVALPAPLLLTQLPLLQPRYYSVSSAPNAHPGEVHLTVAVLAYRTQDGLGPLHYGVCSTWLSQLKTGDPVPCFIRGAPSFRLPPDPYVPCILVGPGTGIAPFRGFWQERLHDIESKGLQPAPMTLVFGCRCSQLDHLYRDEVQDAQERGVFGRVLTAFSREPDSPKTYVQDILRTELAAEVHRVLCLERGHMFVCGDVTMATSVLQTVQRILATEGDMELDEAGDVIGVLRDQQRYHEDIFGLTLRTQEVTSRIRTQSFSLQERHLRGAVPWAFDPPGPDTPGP
# Description: Inhibitory activity against endothelial nitric oxide synthase (eNOS)
# [1] = Selectivity ratio of Ki value of eNOS to nNOS
# [2] = Selectivity ratio of Ki value of iNOS to nNOS
# Nitric oxide synthase 1 = Nitric oxide synthase 1 (Rattus norvegicus, UniProt P29476)
# Sequence of Nitric oxide synthase 1 (P29476 whole entry): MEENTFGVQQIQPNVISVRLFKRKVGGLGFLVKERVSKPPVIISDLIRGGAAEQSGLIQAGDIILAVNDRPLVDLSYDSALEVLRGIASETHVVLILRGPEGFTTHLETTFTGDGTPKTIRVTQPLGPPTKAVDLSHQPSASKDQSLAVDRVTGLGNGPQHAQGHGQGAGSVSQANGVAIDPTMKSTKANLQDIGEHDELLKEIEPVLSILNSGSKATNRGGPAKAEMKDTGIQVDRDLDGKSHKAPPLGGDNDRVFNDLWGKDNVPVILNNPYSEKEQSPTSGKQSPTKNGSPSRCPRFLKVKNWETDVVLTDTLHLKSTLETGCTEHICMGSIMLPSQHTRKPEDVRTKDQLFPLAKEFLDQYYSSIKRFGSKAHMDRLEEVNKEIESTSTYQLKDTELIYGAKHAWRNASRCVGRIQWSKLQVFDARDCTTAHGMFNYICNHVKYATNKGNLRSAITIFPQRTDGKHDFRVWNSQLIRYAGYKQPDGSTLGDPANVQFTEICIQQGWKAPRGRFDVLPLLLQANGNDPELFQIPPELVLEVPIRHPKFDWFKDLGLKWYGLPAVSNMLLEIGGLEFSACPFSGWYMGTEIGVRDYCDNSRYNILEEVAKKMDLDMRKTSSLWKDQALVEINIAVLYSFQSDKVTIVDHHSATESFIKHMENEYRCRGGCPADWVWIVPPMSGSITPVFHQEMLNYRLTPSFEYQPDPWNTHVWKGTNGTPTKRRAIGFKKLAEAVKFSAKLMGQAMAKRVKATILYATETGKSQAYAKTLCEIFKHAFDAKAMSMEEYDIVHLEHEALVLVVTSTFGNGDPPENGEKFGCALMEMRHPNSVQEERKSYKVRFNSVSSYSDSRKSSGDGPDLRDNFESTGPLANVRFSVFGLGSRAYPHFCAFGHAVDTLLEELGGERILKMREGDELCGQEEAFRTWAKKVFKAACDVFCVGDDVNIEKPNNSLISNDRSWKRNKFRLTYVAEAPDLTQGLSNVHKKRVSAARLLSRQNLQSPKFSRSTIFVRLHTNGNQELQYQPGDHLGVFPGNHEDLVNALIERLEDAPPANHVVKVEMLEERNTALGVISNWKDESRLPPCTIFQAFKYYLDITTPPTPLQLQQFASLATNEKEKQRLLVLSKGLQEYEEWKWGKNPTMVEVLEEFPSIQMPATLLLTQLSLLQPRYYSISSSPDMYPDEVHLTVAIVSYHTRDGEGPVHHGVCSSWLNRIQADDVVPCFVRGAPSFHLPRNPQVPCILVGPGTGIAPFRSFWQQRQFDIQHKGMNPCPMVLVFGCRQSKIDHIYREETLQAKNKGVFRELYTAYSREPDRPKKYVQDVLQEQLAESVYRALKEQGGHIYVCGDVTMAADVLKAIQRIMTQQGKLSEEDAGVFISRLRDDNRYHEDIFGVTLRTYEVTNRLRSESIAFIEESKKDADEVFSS
# Description: Inhibitory activity against Neuronal Nitric Oxide Synthase (nNOS)
compound,measurement,setting,value
N=C(NCCC[C@H](N)CNCCc1ccccn1)N[N+](=O)[O-],Ki,Nitric oxide synthase 3,123 µM
NCc1ccc(NC[C@@H](N)CCC/N=C(\N)N[N+](=O)[O-])cc1,Selectivity,[1],299
same,Selectivity,[2],245
N/C(=N\CCC[C@H](N)CNc1ccc(N)cc1)N[N+](=O)[O-],Selectivity,[1],51
same,Selectivity,[2],149
N/C(=N\CCC[C@H](N)CNCCc1ccccc1N)N[N+](=O)[O-],Selectivity,[1],22.1
same,Selectivity,[2],135
N/C(=N\CCC[C@H](N)CNCc1cccnc1)N[N+](=O)[O-],Selectivity,[1],951
same,Selectivity,[2],256
N/C(=N\CCC[C@H](N)CNc1cccc(N)c1)N[N+](=O)[O-],Selectivity,[1],36
same,Selectivity,[2],127
NCc1ccccc1NC[C@@H](N)CCC/N=C(\N)N[N+](=O)[O-],Selectivity,[1],7.17
same,Selectivity,[2],5.28
N=C(NCCC[C@H](N)CNCCc1ccncc1)N[N+](=O)[O-],Ki,Nitric oxide synthase 3,193 µM
N/C(=N\CCC[C@H](N)CNCCc1ccc(N)cc1)N[N+](=O)[O-],Selectivity,[1],230
same,Selectivity,[2],458
NCCCC[C@@H](N)C(=O)N[C@H](CCC/N=C(/N)N[N+](=O)[O-])C(N)=O (H-[dK]-[dArg(NO2)]-NH2),Ki,Nitric oxide synthase 1,0.89 µM
N/C(=N\CCC[C@H](N)CNCCc1cccc(N)c1)N[N+](=O)[O-],Selectivity,[1],35
same,Selectivity,[2],122
COC(=O)[C@@H](CCCNC(=N)N[N+](=O)[O-])NC(=O)[C@H](N)Cc1ccccc1 (H-[dF]-[dArg(NO2)]-OMe),Selectivity,[1],2.5
same,Selectivity,[2],1800
same,Ki,Nitric oxide synthase 1,2 µM
